Assay results: the NIST ThermoML archive (doi:10.1021/je049762q)

Test: molar heat capacity at constant pressure
Details: 101.33 kPa, Crystal

Clc1cc(Cl)cc(Cl)c1 [1,3,5-trichlorobenzene]
Details | molar heat capacity at constant pressure [J/K/mol]
171.08 K | 107.71
172.15 K | 108.11
174.44 K | 109.1
174.82 K | 109.23
177.47 K | 110.35
177.76 K | 110.52
180 K | 111.41
180.1 K | 111.45
181.06 K | 111.92
182.71 K | 112.52
184.34 K | 113.28
185.3 K | 113.6
187.58 K | 114.63
187.87 K | 114.66
190 K | 115.57
190.43 K | 115.78
190.81 K | 115.98
192.97 K | 116.82
194.01 K | 117.3
195.49 K | 117.83
197.19 K | 118.6
198 K | 118.86
200 K | 119.79
200.35 K | 119.94
202.96 K | 120.92
203.48 K | 121.26
205.42 K | 121.91
206.6 K | 122.49
207.87 K | 122.92
209.7 K | 123.75
210 K | 123.84
210.3 K | 123.89
212.71 K | 124.89
212.77 K | 125.04
215.12 K | 125.93
215.83 K | 126.21
217.51 K | 126.8
218.86 K | 127.47
219.88 K | 127.77
220 K | 127.82
221.88 K | 128.7
222.25 K | 128.72
224.6 K | 129.66
224.87 K | 129.89
226.94 K | 130.61
227.85 K | 131.11
229.27 K | 131.59
230 K | 131.95
230.81 K | 132.32
231.58 K | 132.53
233.76 K | 133.48
236.18 K | 134.38
236.69 K | 134.73
238.46 K | 135.33
239.6 K | 135.87
240 K | 136.02
240.73 K | 136.28
242.5 K | 137.03
242.99 K | 137.17
245.24 K | 138.06
245.38 K | 138.2
247.48 K | 138.95
248.24 K | 139.34
249.71 K | 139.83
250 K | 139.96
251.09 K | 140.46
251.93 K | 140.7
253.93 K | 141.6
256.34 K | 142.49
256.76 K | 142.74
258.53 K | 143.37
259.57 K | 143.79
260 K | 143.95
260.71 K | 144.19
262.36 K | 144.92
262.88 K | 145.05
265.05 K | 145.93
265.15 K | 146.04
267.2 K | 146.81
267.91 K | 147.2
269.34 K | 147.62
270 K | 147.9
270.67 K | 148.17
